Results reported in PMC9939292, “Cefoselis enhances breast cancer chemosensitivity by directly targeting GRP78/LRP5 signalling of cancer stem cells” (Clinical and Translational Medicine, 2023).

Molecular target: T1, recombinant GRP78 protein (Homo sapiens, UniProt P11021)
T1 construct: gene HSPA5; recombinant GRP78
Test: isothermal titration calorimetry; also SPR small molecule microarray
Format: binding
Description: isothermal titration calorimetry; also SPR small molecule microarray on recombinant GRP78 protein | measure the binding affinity of cefoselis with the recombinant GRP78 protein

T1 sequence (P11021 19-654): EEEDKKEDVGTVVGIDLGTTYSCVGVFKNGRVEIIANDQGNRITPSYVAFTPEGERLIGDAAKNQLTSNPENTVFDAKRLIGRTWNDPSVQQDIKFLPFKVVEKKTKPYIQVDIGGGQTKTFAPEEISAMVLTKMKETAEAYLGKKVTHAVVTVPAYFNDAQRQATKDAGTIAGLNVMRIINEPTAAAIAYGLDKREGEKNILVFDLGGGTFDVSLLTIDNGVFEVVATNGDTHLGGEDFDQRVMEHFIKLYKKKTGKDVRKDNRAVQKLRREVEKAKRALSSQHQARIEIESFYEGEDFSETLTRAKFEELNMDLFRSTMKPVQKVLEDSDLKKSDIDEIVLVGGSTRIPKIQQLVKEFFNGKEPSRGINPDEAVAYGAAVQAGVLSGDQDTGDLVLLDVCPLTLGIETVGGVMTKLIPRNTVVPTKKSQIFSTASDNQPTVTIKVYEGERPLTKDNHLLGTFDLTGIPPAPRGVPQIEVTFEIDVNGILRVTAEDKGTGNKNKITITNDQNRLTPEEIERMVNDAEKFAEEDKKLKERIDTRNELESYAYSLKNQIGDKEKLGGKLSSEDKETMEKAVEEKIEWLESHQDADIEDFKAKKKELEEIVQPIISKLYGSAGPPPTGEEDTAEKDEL

`CO/N=C(\C(=O)N[C@@H]1C(=O)N2C(C(=O)[O-])=C(C[n+]3ccc(N)n3CCO)CS[C@H]12)c1csc(N)n1` [cefoselis] showed a Kd of 463 nM.
